Active and inactive are the calls of the source.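 How the source made its calls: active means compounds raising the signal whose fitted half-maximal concentration is at or below their top tested dose (cut at about 25 µM in these data); inconclusive means flat fit at 30 to 70% activity, or a poor fit; inactive means the rest.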

The test system of this experiment is INS-1E rat beta cells, no cytokines, CellTiter-Glo ATP, 48 h. Description: cytokine-free beta-cell viability effect – INS-1E rat cells, ATP luminescence, cherry pick, counter-screen for beta-cell apoptosis protection project, dose response (AID 463229). On the technique in general: The purpose of a counterscreen is to sort out artefacts and off-target activity.
What is called AC50 is the midpoint of the concentration-response curve, whichever way the signal moves. In the case of `Cc1cccc2sc(NNC(=O)c3ccc(S(=O)(=O)N4CCCC(C)C4)cc3)nc12` (centres undefined), the AC50 was 6.74 µM.
As for `CCCC(=O)NC(c1ccccc1Cl)c1ccc2cccnc2c1O` (centres undefined), the figure is 2.13 µM.
For the compound `COc1ccc(CCNc2cc(N3CCN(C(=O)c4ccccc4OC)CC3)ccc2[N+](=O)[O-])cc1OC`, the AC50 is 8.74 µM.
As for `COc1ccc(C(=O)N/N=C/c2ccccc2OC(=O)c2ccccc2)cc1`, the figure is 7.93 µM; as for `COc1ccc([N+](=O)[O-])c(S(=O)(=O)c2ccc(Cl)cc2)n1`, 7.61 µM.
In the case of `C/C(=N/NC(=O)c1ccc(C(C)(C)C)cc1)c1ccccn1` it was 2.1 µM.
As for `CC(C)(C)Nc1nc(-c2ccccn2)nc2ccccc12`, the figure is 6.87 µM.
`CC#CC[N+](C)(C)CCCCCCCCCCCC`: the AC50 was 2.23 µM.
As for `CCN(CC)S(=O)(=O)c1cc(OC)ccc1N=Nc1ccc(O)c2ncccc12`, the figure is 4.04 µM.
Regarding `O=C(NCc1ccccc1)C1=C[C@@H](c2csc3ccccc23)C[C@@H](OCCCCO)O1`, the AC50 was 2.67 µM.
`C=C1C(=O)O[C@@H]2C[C@@H](C)[C@@H]3C=CC(=O)[C@@]3(C)[C@@H](OC(C)=O)[C@H]12`: the AC50 was 2.21 µM.
Take `Cc1cccc(Nc2nc(N)c([N+](=O)[O-])c(N3CC(C)CC(C)C3)n2)c1` (centres undefined): the AC50 is 14.8 µM.
In the case of `Cc1ccc(NS(=O)(=O)c2ccc(NC(=O)CN(c3cc([N+](=O)[O-])ccc3C)S(C)(=O)=O)cc2)c(C)c1` it was 1.86 µM; in that of `NC(=S)N/N=C/c1ccc(C23CC4CC(CC(C4)C2)C3)cc1`, 12.2 µM; in that of `CCn1c(NN=O)nc2ccccc21`, 7.85 µM.
As for `N#C/C(=C\c1ccc([N+](=O)[O-])o1)c1nc2ccccc2[nH]1`, the AC50 is 4.09 µM.
Take `Cc1ccc(F)c([C@H]2C3C=CCC(c4ccccc4)C3C(=O)N2Cc2ccccc2)c1` (some centres undefined): the AC50 is 14.4 µM.
In the case of `CC1(C)N=C(N)N=C(N)N1c1ccc(OCCCOc2ccccc2)c(Cl)c1` it was 0.913 µM.
For `Oc1c(Br)cc(Br)cc1/C=N/NC(=S)N[C@H]1CC2C=CC1C2` (some centres undefined), the AC50 is 12.1 µM.
As for `COc1ccc(CCNc2ncnc3c2oc2ccccc23)cc1OC`, the figure is 3.41 µM; as for `Cc1cc2nc(-c3ccc[nH]c3=O)[nH]c2cc1C`, 2.42 µM; as for `COc1cccc(C(=O)Oc2c(CN3CCOCC3)cc(Cl)c3cccnc23)c1`, 14.3 µM.
In the case of `Cc1cc(C(=O)CSc2nc3ccccc3c(=O)n2C)c(C)n1Cc1ccc2c(c1)OCO2` it was 2.07 µM; in that of `CCN(c1ccccc1)S(=O)(=O)c1ccc(NC(=O)c2nc(S(C)(=O)=O)ncc2Cl)cc1`, 8.95 µM; in that of `COc1ccc(-c2cc(-c3nc4ccccn4c3NCc3ccccc3)ccc2OC)cc1`, 0.992 µM.
In the case of `O=C(Nc1ccccc1O)C(c1ccccc1)c1ccccc1` it was 6.92 µM; in that of `C=C(C(=O)c1ccccc1)C(C(=C)C(=O)c1ccccc1)c1ccc(OC)cc1`, 7.54 µM; in that of `CCCC(=O)NC(c1ccc(Cl)cc1Cl)c1ccc2cccnc2c1O` (centres undefined), 2.3 µM.
Turning to `O=C(NNC(=O)c1ccccc1OCc1ccc(F)cc1)c1ccccc1O`, the AC50 was 13.6 µM.
As for `O=C(Nc1cc(-c2ccccc2)nn1C1CCCCC1)c1ccc(Cl)cc1`, the figure is 3.67 µM.
In the case of `N#CC(c1ccc(Cl)cc1)c1ccc2c(C(F)(F)F)cc(C(F)(F)F)nc2n1` (centres undefined) it was 0.898 µM; in that of `COc1ccccc1NC(=O)c1nc(S(=O)(=O)Cc2ccccc2)ncc1Cl`, 8.64 µM.
For `O=C(Nc1ccc(N2CCN(C(=O)c3ccc(Cl)cc3)CC2)cc1)c1cccnc1`, the AC50 is 18.7 µM.
For the compound `CN1/C(=C\C=C2/SC(=S)NC2=O)C(C)(C)c2ccccc21`, the AC50 was 3.38 µM.
As for `CCN(CC)CCOc1ccc2c(c1)C(=NO)c1cc(OCCN(CC)CC)ccc1-2`, the figure is 14.1 µM.
As for `COC(=O)C1=C(C)N(Cc2ccccc2)C(=NCc2cccc(Cl)c2)N[C@H]1c1cccc(F)c1`, the figure is 6.75 µM.
In the case of `O=C(Nc1cccnc1)c1ccc([N+](=O)[O-])s1`, the AC50 was 15.3 µM.
Regarding `CC(=O)NC(c1cccs1)c1cc(F)c2cccnc2c1O` (centres undefined), the AC50 is 6.05 µM.
For the compound `COc1cc(SC#N)ccc1N=Cc1c(C)[nH]n(-c2ccc(C)cc2)c1=O`, the AC50 is 8.46 µM.
In the case of `CCCNC(=O)c1ccc2c(=O)c(O)c(-c3ccc(Cl)c([N+](=O)[O-])c3)[nH]c2c1` it was 10.8 µM; in that of `CCn1c(-c2ccccc2)c(C(=O)CCl)c2ccccc21`, 11.6 µM.
In the case of `Cc1ccc2nc(-c3ccc(NC(=O)c4cccnc4)cc3)oc2c1` it was 7.8 µM; in that of `CC(=O)Nc1ccc(Nc2c3ccccc3nc3ccccc23)cc1`, 7.08 µM; in that of `CCOc1cc(-c2sc(Nc3cc(C)ccc3OC)n[n+]2-c2ccccc2)ccc1OC`, 15 µM.
In the case of `Cn1nnnc1Sc1ncnc2scc(-c3cc4ccccc4o3)c12`, the half-maximal activity concentration (AC50) is 7.61 µM.
As for `CCCc1sc(N/N=C/c2ccccn2)nc1-c1ccc(F)cc1`, the figure is 2.27 µM; as for `O=C(Nc1cccc([N+](=O)[O-])c1)c1cc2ccccc2cc1O`, 4.38 µM; as for `CCOc1ccccc1NC(=O)C(=O)N/N=C/c1cc(Br)ccc1O`, 4.36 µM.
`O=C(NCCCn1ccnc1)c1ccc(-c2ccccc2)cc1`: the AC50 is 8.12 µM.
`Cc1ccc(NC(=O)CCC(=O)N/N=C/c2ccc([N+](=O)[O-])o2)cc1C`: the half-maximal activity concentration (AC50) is 19.8 µM.
In the case of `C=CCn1c(SCN2C(=O)c3ccccc3C2=O)nc2ccc(Cl)cc2c1=O` it was 7.16 µM; in that of `Cc1ccc(-c2nc(N/N=C/c3cccnc3)c3ccccc3n2)cc1`, 9.02 µM; in that of `CCOc1ccc(C(=O)c2cc([N+](=O)[O-])ccc2N2CCOCC2)cc1`, 0.371 µM.
On to `O=c1cnnc(N/N=C/c2ccccn2)[nH]1`, for which the AC50 is 3.93 µM.
`CC(=O)N(Cc1ccc(F)cc1)C1=C(NCCc2ccccc2)C(=O)c2ccccc2C1=O`: the AC50 is 4.13 µM.
Take `Cc1ccc(NC(=O)C2CCN(S(=O)(=O)c3ccc(N4CCCC4=O)cc3)CC2)cc1Cl`: the AC50 was 2.37 µM.
As for `CN(Cc1c(F)cccc1Cl)C(=O)c1cc2ccccc2o1`, the figure is > 26 µM (inactive); as for `COc1ccc(C(CCN2CCCCC2)c2c(OC)cc(OC)c3c(-c4ccccc4)cc(=O)oc23)cc1` (centres undefined), 14.1 µM; as for `O=C(/C(=C/c1ccc(Cl)cc1)c1nc2ccccc2[nH]1)c1cccs1`, 4.4 µM.
On to `O=C(N/N=C/c1cc(Br)cc(Cl)c1O)c1ccc2c(c1)OCO2`, for which the concentration at half-maximal activity (AC50) was 11 µM.
As for `CCCOc1nc2c(c(=O)n(C)c(=O)n2C)n1Cc1cccc2ccccc12`, the figure is 14.4 µM; as for `CCCc1cc(=O)n2[nH]cc(-c3ccc(Cl)cc3)c2n1`, 11.9 µM.
Turning to `CCCCCCc1cc2cc(C(=O)Nc3cccc(OC)c3)c(=O)oc2cc1O`, the AC50 is 4.41 µM.
As for `Cc1ncc(CO)c(/C=N/Nc2ccc(C(F)(F)F)cn2)c1O`, the AC50 was 5.17 µM.
In the case of `CCCCCCSc1ccc([C@H]2N[C@@](Cc3ccccc3)(C(=O)OC)[C@H]3C(=O)N(C)C(=O)[C@@H]23)cc1` it was 14.6 µM; in that of `CC1=C/C(=N\OS(=O)(=O)c2ccccc2)C(C)=CC1=O`, 1.52 µM.
Take `CCC(=O)NC(c1cccs1)c1ccc2cccnc2c1O` (centres undefined): the AC50 was 3.37 µM.
For `Cc1cc(F)ccc1S(=O)(=O)Nc1ccccc1C(=O)Nc1ccccc1-c1nc2ccccc2[nH]1`, the AC50 was 7.72 µM.
In the case of `c1ccc2c(CNC3CCCCC3)c[nH]c2c1`, the AC50 is 6.79 µM.
In the case of `CN(C)C1CCN(Cc2cc(COCc3ccccc3)c3cccnc3c2O)C1` (centres undefined) it was 10.9 µM; in that of `CCOC(=O)C1CCN(Cc2ccc(O)c3ncccc23)CC1`, 12.5 µM.
As to `N#Cc1ccc(C(=O)Nc2nc(-c3cccs3)c(C(=O)C(F)(F)F)s2)cc1`, the AC50 was 4.37 µM.
Turning to `Brc1ccc(N/N=C(/N=Nc2nn[nH]n2)c2ccccc2)cc1`, the AC50 is 3.51 µM.
As for `O=C(Nc1cccc(C(F)(F)F)c1)Nc1ccc(N2CCCC2)c(S(=O)(=O)Nc2ccccc2Cl)c1`, the figure is 4.27 µM.
As for `O=C(NC(Nc1nc2ccc([N+](=O)[O-])cc2s1)(C(F)(F)F)C(F)(F)F)c1ccccc1`, the figure is 0.367 µM; as for `Cc1ccc(NC2=CC(=O)C(=O)c3ccccc32)cc1`, 7.65 µM.
In the case of `Cc1ccc(-c2ccc(/C=C3\C(=O)ON=C3c3ccccc3)o2)c([N+](=O)[O-])c1` it was 6.77 µM.
Consider `CCCCCc1cc(=O)oc2c(C(CCN(CC)CC)c3ccc(OC)cc3)c(OC)cc(OC)c12` (centres undefined), for which the AC50 was 14 µM.
Regarding `CC1=NN(c2ccc(C)c(C)c2)C(=O)/C1=C\C=C\c1ccc([N+](=O)[O-])o1`, the AC50 was 7.6 µM.
Regarding `Cn1nccc1C(=O)NC1CCCc2c1cnn2-c1ccc(C(C)(C)C)cc1` (centres undefined), the half-maximal activity concentration (AC50) is 2.11 µM.
As for `CN1/C(=C\C(=O)c2ccco2)C(C)(C)c2ccccc21`, the figure is 7.58 µM; as for `Oc1ccc(N=Nc2ccc3c(c2)OCCO3)c2ncccc12`, 3.75 µM.
With `COc1ccc(/C=C/c2nc3ccccc3n2C)cc1`, the AC50 was 3.13 µM.
In the case of `CCN1/C(=C/C(C)=C/c2sc3ccccc3[n+]2CC)Sc2ccccc21` it was less than 0.195 µM; in that of `CCCCCCCCCCCCCCCC[n+]1cccc(C(=O)N(CC)CC)c1`, 8.01 µM; in that of `COc1ccc(CC(=O)Nc2nc(-c3ccc(F)c(F)c3)cs2)cc1OC`, 7.2 µM.
As to `Nc1nc(Cl)cc(N2CCC(c3cc(-c4ccc(Cl)cc4)n[nH]3)CC2)n1`, the AC50 is 5.56 µM.
For the compound `Cc1ccc(NC(=O)Cc2nn(C)c(=O)c3ccccc23)cc1F`, the AC50 is 6.97 µM.
Regarding `CCOC(=O)c1ccc(-[n+]2c(-c3ccccc3)cc(-c3ccccc3)cc2-c2ccccc2)cc1`, the AC50 is 2.27 µM.
As to `COc1ccc(Cn2c(SCc3cc(C)ccc3C)nc3cc(OC)c(OC)cc3c2=N)cc1`, the half-maximal activity concentration (AC50) is 7.22 µM.
In the case of `Cc1ccccc1Oc1cc(NC(=O)CCCn2nc(C)c([N+](=O)[O-])c2C)cc([N+](=O)[O-])c1` it was 6.44 µM; in that of `CCOC(=O)/C(=C\c1ccc([N+](=O)[O-])cc1)C(=O)c1cc(C(C)=O)c(Nc2ccccc2)s1`, 2.41 µM; in that of `Nc1c(C(=O)Nc2ccc(S(=O)(=O)N3CCCC3)cc2)sc2nc3cc4c(cc3cc12)CCC4`, 4.63 µM.
As for `CC1Cc2cc(S(=O)(=O)N3CCC(C(=O)N4CCN(c5ccccc5F)CC4)CC3)ccc2N1C(=O)C1CC1` (centres undefined), the AC50 was 8 µM.

These data come from PubChem BioAssay AID463229 (Broad Institute, 2010).
